{"source": "paper PMC10176891", "about": "(Bioorganic & Medicinal Chemistry Letters, 2023)", "key": {"[1]": {"assay": "Liver microsome stability, rat", "format": "in vitro ADME", "conditions": "liver microsomes"}, "[2]": {"assay": "Liver microsome stability, mouse", "format": "in vitro ADME", "conditions": "liver microsomes"}, "[3]": {"assay": "Hepatocytes stability, rat", "format": "in vitro ADME"}, "[4]": {"assay": "Hepatocytes stability, mouse", "format": "in vitro ADME"}, "[5]": {"assay": "Hepatocytes stability, human", "format": "in vitro ADME"}, "Mouse PK": {"assay": "Mouse PK", "format": "in vivo", "conditions": "iv 3 mg/kg"}, "Rat PK": {"assay": "Rat PK", "format": "in vivo", "conditions": "iv 2 mg/kg"}, "[6]": {"assay": "Liver microsome stability, human", "format": "in vitro ADME", "conditions": "liver microsomes"}, "SARS-CoV-2 M^pro": {"target": "SARS-CoV-2 M^pro (Severe acute respiratory syndrome coronavirus 2, UniProt P0DTD1)", "assay": "SARS-CoV-2 Mpro enzymatic assay", "format": "biochemical"}, "[7]": {"assay": "Predicted human clearance by simple allometric scaling", "conditions": "simple allometric scaling method"}, "HCoV-OC43": {"tested_on": "HCoV-OC43", "format": "in vivo", "conditions": "intraperitoneal injection, 7 days, 6 neonatal mice per group"}, "[8]": {"conditions": "vehicle 40% PEG400 + 60 %saline"}}}
{"smiles": "CC(C)(C)[C@H](NC(=O)C(F)(F)F)C(=O)N1C[C@@H]2CCC[C@@H]2[C@H]1C(=O)N[C@H](C#N)C[C@@H]1CCNC1=O", "note": "[2a]", "values": [{"measurement": "CLint scaled", "setting": "[1]", "value": "< 17.3", "unit": "mL/min/kg"}, {"measurement": "CLint scaled", "setting": "[2]", "value": 262, "unit": "mL/min/kg"}, {"measurement": "CLint scaled", "setting": "[3]", "value": 32, "unit": "mL/min/kg"}, {"measurement": "CLint scaled", "setting": "[4]", "value": 435, "unit": "mL/min/kg"}, {"measurement": "CLint scaled", "setting": "[5]", "value": "< 17.8", "unit": "mL/min/kg"}, {"measurement": "CL", "setting": "Mouse PK; vehicle saline", "value": "79.3 mL min^−1 kg^−[1]"}, {"measurement": "CL", "setting": "Rat PK; vehicle saline", "value": "75.4 mL min^−1 kg^−[1]"}, {"measurement": "CLint scaled", "setting": "[6]", "value": 13, "unit": "mL/min/kg"}]}
{"smiles": "CC(=O)N[C@H](C(=O)N1C[C@@H]2CCC[C@@H]2[C@H]1C(=O)N[C@H](C#N)C[C@@H]1CCNC1=O)C1CCCCC1", "note": "[3c]", "values": [{"measurement": "Folds loss in enzymatic and cell potencies", "setting": "SARS-CoV-2 M^pro; P3 cap modifications, enzymatic and cell potencies", "value": "3–10 folds"}]}
{"smiles": "N#C[C@H](C[C@@H]1CCNC1=O)NC(=O)[C@@H]1[C@H]2CCC[C@H]2CN1C(=O)[C@@H](NC(=O)C(F)(F)F)c1ccc(F)cc1", "note": "[3b]", "values": [{"measurement": "Fold weaker in enzymatic potency relative to 2a", "setting": "SARS-CoV-2 M^pro; relative to 2a", "value": 4, "unit": "fold"}]}
{"smiles": "CC(C)(C)NC(=O)C(=O)[C@H](C[C@@H]1CCNC1=O)NC(=O)[C@@H]1[C@H]2CCC[C@H]2CN1C(=O)[C@@H](NC(=O)C(F)(F)F)C1CCCCC1", "note": "[4a]", "values": [{"measurement": "CLint scaled", "setting": "[1]", "value": 25, "unit": "mL/min/kg"}, {"measurement": "CLint scaled", "setting": "[2]", "value": 212, "unit": "mL/min/kg"}, {"measurement": "CLint scaled", "setting": "[3]", "value": 42, "unit": "mL/min/kg"}, {"measurement": "CLint scaled", "setting": "[4]", "value": 1020, "unit": "mL/min/kg"}, {"measurement": "CLint scaled", "setting": "[5]", "value": "< 17.8", "unit": "mL/min/kg"}, {"measurement": "Predicted human clearance", "setting": "[7]", "value": "about 2.9 ml/min/kg"}, {"measurement": "CL", "setting": "Mouse PK; [8]", "value": "2.50 mL min^−1 kg^−[1]"}, {"measurement": "CL", "setting": "Rat PK; [8]", "value": "2.55 mL min^−1 kg^−[1]"}, {"measurement": "Mice survived at day 14", "setting": "HCoV-OC43; high dosing group", "value": "6/6"}, {"measurement": "Mice survived", "setting": "HCoV-OC43; low dosing group", "value": "four out of six"}]}
{"smiles": "N#C[C@H](C[C@@H]1CCNC1=O)NC(=O)[C@@H]1[C@H]2CCC[C@H]2CN1C(=O)[C@@H](NC(=O)C(F)(F)F)C1CCCCC1", "note": "[3a]", "values": [{"measurement": "CLint scaled", "setting": "[1]", "value": "< 17.3", "unit": "mL/min/kg"}, {"measurement": "CLint scaled", "setting": "[2]", "value": 215, "unit": "mL/min/kg"}, {"measurement": "CLint scaled", "setting": "[3]", "value": 51, "unit": "mL/min/kg"}, {"measurement": "CLint scaled", "setting": "[4]", "value": 455, "unit": "mL/min/kg"}, {"measurement": "CLint scaled", "setting": "[5]", "value": "< 17.8", "unit": "mL/min/kg"}, {"measurement": "CL", "setting": "Mouse PK; vehicle saline", "value": "92.2 mL min^−1 kg^−[1]"}, {"measurement": "CL", "setting": "Rat PK; vehicle saline", "value": "62.7 mL min^−1 kg^−[1]"}, {"measurement": "CLint scaled", "setting": "[6]", "value": 19, "unit": "mL/min/kg"}]}
{"smiles": "CC(C)(C)[C@H](NC(=O)C(F)(F)F)C(=O)N1C[C@H]2[C@@H]([C@H]1C(=O)N[C@H](C#N)C[C@@H]1CCNC1=O)C2(C)C", "note": "[nirmatrelvir, reference compound]", "values": [{"measurement": "CLint scaled", "setting": "[1]", "value": "< 17.3", "unit": "mL/min/kg"}, {"measurement": "CLint scaled", "setting": "[2]", "value": 329, "unit": "mL/min/kg"}, {"measurement": "CLint scaled", "setting": "[3]", "value": "< 29.9", "unit": "mL/min/kg"}, {"measurement": "CLint scaled", "setting": "[4]", "value": 169, "unit": "mL/min/kg"}, {"measurement": "CLint scaled", "setting": "[5]", "value": "< 17.8", "unit": "mL/min/kg"}, {"measurement": "CL", "setting": "Mouse PK; vehicle saline", "value": "30.2 mL min^−1 kg^−[1]"}, {"measurement": "CL", "setting": "Rat PK; vehicle saline", "value": "42.0 mL min^−1 kg^−[1]"}, {"measurement": "CLint scaled", "setting": "[6]", "value": 29, "unit": "mL/min/kg"}]}
{"smiles": "CC(C)(C)NC(=O)C(=O)[C@H](C[C@@H]1CCNC1=O)NC(=O)[C@@H]1[C@H]2CCC[C@H]2CN1C(=O)[C@@H](NC(=O)C(F)(F)F)C1CCCC1", "note": "[4c]", "values": [{"measurement": "CL", "setting": "Mouse PK; [8]", "value": "5.06 mL min^−1 kg^−[1]"}]}
